The record followed here is ChEMBL document CHEMBL1201862, “PubChem BioAssay data set” (2004).

Structures are written as SMILES.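 Tested at 5 concentrations; 48 h exposure; 96-well plates; endpoints linearly interpolated, else capped at highest concentration. The concentration for 50% growth inhibition is given as GI50.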 The source made the active and inactive calls. No stated cut-off is given here; in the data, active = GI50 up to about 1.1 µM and inactive = higher.

Among the test systems are A498; A549; COLO 205; DU-145; HCT-15; IGROV-1; KM12; MDA-MB-435; MDA-N; NCI-H522; NCI/ADR-RES; OVCAR-3; OVCAR-5; RPMI-8226; RXF 393; SF-268; SK-MEL-2; SNB-19; T47D; UACC-257.
What all share (assay): NCI-60 cell line screen, 48 h

For the compound `C/C(=N/NC(=S)Nc1ccccc1C)c1ccccn1`, the GI50 in the assay with A498 was 1.67 µM (inactive); in the assay with A549, 0.0855 µM (active); with COLO 205 it was < 0.0196 µM (active); with DU-145, 1.63 µM (inactive); with HCT-15, 0.0228 µM; in the assay with IGROV-1, < 0.0182 µM (active). For the same compound, the GI50 in the assay on KM12 is 0.173 µM (active); in the assay with MDA-MB-435 it was 0.632 µM (active); with MDA-N, 0.807 µM (active); in the assay with NCI-H522, 0.583 µM (active); in the assay on NCI/ADR-RES it was 0.0322 µM (active); in the assay with OVCAR-3, 0.0144 µM (active). The GI50 in the assay on OVCAR-5 was 0.0843 µM (active); with RPMI-8226, < 0.0188 µM (active); in the assay on RXF 393 it was 0.682 µM (active); with SF-268 it was 0.14 µM (active); with SK-MEL-2 it was 2.65 µM (inactive); in the assay on SNB-19, 2.43 µM (inactive). Also, the GI50 is < 0.0475 µM (active) with T47D and < 0.0208 µM (active) in the assay on UACC-257.
For `C/C(Cc1ccc2c(c1)OCO2)=N\N=c1\sc2ccccc2n1C`, the GI50 was > 100 µM (inactive) with A498; > 100 µM (inactive) in the assay on A549; > 100 µM (inactive) in the assay with COLO 205; > 100 µM (inactive) in the assay on DU-145; 68.4 µM in the assay with HCT-15; > 100 µM (inactive) in the assay with IGROV-1. Further, the GI50 with KM12 is > 100 µM (inactive); in the assay with MDA-MB-435, > 100 µM (inactive); in the assay with MDA-N it was 83.2 µM (inactive); with NCI-H522 it was > 100 µM (inactive); in the assay on NCI/ADR-RES it was > 100 µM (inactive); in the assay with OVCAR-3, > 100 µM (inactive). For the same compound, the GI50 with OVCAR-5 was > 100 µM (inactive); in the assay on RPMI-8226, 65.9 µM (inactive); in the assay on RXF 393 it was > 100 µM (inactive); in the assay on SF-268, > 100 µM (inactive); with SK-MEL-2, > 100 µM (inactive); in the assay with SNB-19, > 100 µM (inactive). Besides, the GI50 in the assay with T47D is 58.7 µM (inactive); in the assay with UACC-257, > 100 µM (inactive).
`CN1CCC(CNC(=O)CCCCCCCCC(=O)NCC2(c3ccccc3)CCN(C)CC2)(c2ccccc2)CC1`: the GI50 with A498 was > 100 µM (inactive); in the assay on A549, > 100 µM (inactive); in the assay with COLO 205, 69.7 µM (inactive); in the assay with DU-145 it was > 100 µM (inactive); in the assay with HCT-15, more than 100 µM; with IGROV-1, > 100 µM (inactive). In addition, the GI50 in the assay with KM12, with MDA-MB-435, in the assay with MDA-N, in the assay on NCI-H522, in the assay with NCI/ADR-RES and with OVCAR-3 was > 100 µM (inactive) in each case. In addition, the GI50 with OVCAR-5 was > 100 µM (inactive); in the assay with RPMI-8226, > 100 µM (inactive); with RXF 393 it was > 100 µM (inactive); with SF-268 it was 14.3 µM (inactive); in the assay with SK-MEL-2, > 100 µM (inactive); with SNB-19, > 100 µM (inactive). Moreover, the GI50 is 30.7 µM (inactive) in the assay with T47D and 38.8 µM (inactive) in the assay with UACC-257.
As to `CC1OC(OC2C(OC(=O)[C@]34CCC(C)(C)C[C@H]3C3=CC[C@@H]5[C@@]6(C)CC[C@H](OC7OC(CO)C(O)C(O)C7OC7OC(CO)C(O)C(O)C7O)C(C)(C)[C@@H]6CC[C@@]5(C)[C@]3(C)CC4)OCC(O)C2O)C(O)C(OC2OCC(O)C(O)C2O)C1OC1OCC(O)C(OC2OCC(O)C(O)C2O)C1O` (stereo not given in full), the GI50 in the assay with A498 is 2.24 µM (inactive); in the assay on A549 it was 3.7 µM (inactive); in the assay on COLO 205, 2.77 µM (inactive); with DU-145, 10.5 µM (inactive); in the assay on HCT-15, 22.7 µM; in the assay with IGROV-1, 19.1 µM (inactive). Further, the GI50 is 7.31 µM (inactive) in the assay with KM12; 2.26 µM (inactive) in the assay with MDA-MB-435; 2.27 µM (inactive) with MDA-N; 3.19 µM (inactive) in the assay on NCI-H522; 11 µM (inactive) in the assay on NCI/ADR-RES; 23.4 µM (inactive) with OVCAR-3. For the same compound, the GI50 was 8.55 µM (inactive) in the assay on OVCAR-5; 7.69 µM (inactive) with RPMI-8226; 16.4 µM (inactive) with RXF 393; 9.51 µM (inactive) in the assay with SF-268; 8.57 µM (inactive) in the assay with SK-MEL-2; 16.7 µM (inactive) with SNB-19. In addition, the GI50 in the assay on T47D was 14.7 µM (inactive); with UACC-257, 3.78 µM (inactive).
For the compound `Cc1cn(C2CC(O)C(Cn3nncc3Cn3cnc4c(N)ncnc43)O2)c(=O)[nH]c1=O` (stereo not given), the GI50 in the assay on A498 is > 100 µM (inactive); with A549, > 100 µM (inactive); with COLO 205, > 100 µM (inactive); in the assay on DU-145, > 100 µM (inactive); in the assay on HCT-15, more than 100 µM; with IGROV-1, > 100 µM (inactive). The GI50 with KM12, in the assay on MDA-MB-435, in the assay on MDA-N, in the assay with NCI-H522, in the assay on NCI/ADR-RES and in the assay with OVCAR-3 was > 100 µM (inactive) in each case. In addition, the GI50 with OVCAR-5, in the assay on RPMI-8226, in the assay on RXF 393, with SF-268, in the assay with SK-MEL-2 and with SNB-19 was > 100 µM (inactive) throughout. In addition, the GI50 in the assay with T47D and with UACC-257 was > 100 µM (inactive) in each case.
As for `CN(C)CC1CCCCCCCCCC(CN(C)C)C1=O` (stereo not given), the GI50 in the assay with A498 is > 28.4 µM (inactive); in the assay on A549, > 34.8 µM (inactive); in the assay with COLO 205 it was > 38.1 µM (inactive); in the assay on DU-145, 12.9 µM (inactive); with HCT-15, more than 22.3 µM; in the assay on IGROV-1, > 39.9 µM (inactive). Also, the GI50 with KM12 was > 21.4 µM (inactive); with MDA-MB-435, 4.94 µM (inactive); in the assay on MDA-N it was 5.62 µM (inactive); in the assay with NCI-H522 it was 2.7 µM (inactive); in the assay on NCI/ADR-RES, 6.43 µM (inactive); in the assay on OVCAR-3, > 20.3 µM (inactive). For the same compound, the GI50 is > 49.1 µM (inactive) in the assay with OVCAR-5; > 22 µM (inactive) in the assay on RPMI-8226; 8.77 µM (inactive) with RXF 393; > 34.3 µM (inactive) with SF-268; > 42.9 µM (inactive) in the assay with SK-MEL-2; > 39.7 µM (inactive) with SNB-19. Also, the figures for the GI50 in the assay with T47D and with UACC-257 were 7.06 µM (inactive) and 23.1 µM (inactive), respectively.
In the case of `C[C@]12CC[C@H](O)CC1=CC[C@@H]1[C@@H]2CC[C@]2(C)NC(=O)/C(=C\c3ccccc3)C[C@@H]12`, the GI50 in the assay with A498 is 15.2 µM (inactive); with A549, 14.6 µM (inactive); with COLO 205 it was 16 µM (inactive); with DU-145 it was 16.4 µM (inactive); in the assay with HCT-15, 17.4 µM; in the assay with IGROV-1, 15.9 µM (inactive). In addition, the GI50 is 14.5 µM (inactive) in the assay with KM12; 18.3 µM (inactive) in the assay on MDA-MB-435; 24.3 µM (inactive) in the assay on MDA-N; 10.5 µM (inactive) in the assay on NCI-H522; 18.5 µM (inactive) in the assay on NCI/ADR-RES; 11.9 µM (inactive) with OVCAR-3. The GI50 was 14.5 µM (inactive) in the assay with OVCAR-5; 21.6 µM (inactive) in the assay with RPMI-8226; 13.5 µM (inactive) in the assay on RXF 393; 15.5 µM (inactive) in the assay with SF-268; 12.6 µM (inactive) with SK-MEL-2; 14.7 µM (inactive) in the assay with SNB-19. Further, the GI50 is 12.3 µM (inactive) in the assay on T47D and 23.3 µM (inactive) in the assay with UACC-257.
For `COc1ccc2c(c1)CCCN2S(=O)(=O)c1ccccc1[N+](=O)[O-]`, the GI50 is 33.4 µM (inactive) with A498; 53.7 µM (inactive) in the assay on A549; 40.6 µM (inactive) with COLO 205; 74.5 µM (inactive) with DU-145; 14.3 µM with HCT-15; 34.3 µM (inactive) with IGROV-1. The GI50 with KM12 is 10.7 µM (inactive); in the assay on MDA-MB-435 it was 2.99 µM (inactive); in the assay with MDA-N it was 3.73 µM (inactive); with NCI-H522, 26.7 µM (inactive); in the assay on NCI/ADR-RES, 19.2 µM (inactive); with OVCAR-3, 47.8 µM (inactive). In addition, the GI50 in the assay on OVCAR-5 was 84.3 µM (inactive); in the assay with RPMI-8226, 29.4 µM (inactive); with RXF 393, 25.6 µM (inactive); with SF-268, 49.5 µM (inactive); in the assay with SK-MEL-2, 22.5 µM (inactive); with SNB-19, > 73.3 µM (inactive). For the same compound, the figures for the GI50 with T47D and in the assay with UACC-257 were 48.2 µM (inactive) and 71.9 µM (inactive), respectively.
Consider `[O-]/[N+](=C\c1ccccc1OC(=S)S)c1ccc(Cl)cc1`, for which the GI50 with A498 is 59.8 µM (inactive); in the assay with A549, > 100 µM (inactive); with COLO 205, 3.92 µM (inactive); in the assay with DU-145, 42.9 µM (inactive); in the assay with HCT-15, 15.7 µM; in the assay on IGROV-1, 12.1 µM (inactive). The GI50 with KM12 was 26.7 µM (inactive); with MDA-MB-435, 15.7 µM (inactive); in the assay with MDA-N it was 18 µM (inactive); in the assay on NCI-H522, 16.8 µM (inactive); with NCI/ADR-RES, 18.5 µM (inactive); in the assay on OVCAR-3, 18.7 µM (inactive). Further, the GI50 is 21.2 µM (inactive) with OVCAR-5; 5.7 µM (inactive) in the assay with RPMI-8226; 45.7 µM (inactive) in the assay on RXF 393; 19.5 µM (inactive) in the assay with SF-268; 20 µM (inactive) in the assay on SK-MEL-2; 83.4 µM (inactive) in the assay on SNB-19. Moreover, the values for the GI50 in the assay on T47D and in the assay with UACC-257 were 6.01 µM (inactive) and 21.5 µM (inactive), respectively.
Consider `N#C[BH2-][n+]1cn(C2CC(OP(=O)(O)OCC3OC(n4ccc(N)nc4=O)CC3O)C(CO)O2)c2nc(N)[nH]c(=O)c21` (stereo not given), for which the GI50 in the assay on A498 is > 100 µM (inactive); in the assay on A549, > 100 µM (inactive); with COLO 205, > 100 µM (inactive); in the assay with DU-145 it was > 100 µM (inactive); in the assay on HCT-15 it was more than 100 µM; with IGROV-1, > 100 µM (inactive). In addition, the GI50 in the assay on KM12, with MDA-MB-435, in the assay with MDA-N, in the assay on NCI-H522, with NCI/ADR-RES and with OVCAR-3 was > 100 µM (inactive) in each case. In addition, the GI50 in the assay on OVCAR-5, in the assay on RPMI-8226, with RXF 393, in the assay with SF-268, in the assay on SK-MEL-2 and in the assay on SNB-19 was > 100 µM (inactive) in each case. Further, the GI50 in the assay with T47D and in the assay on UACC-257 was > 100 µM (inactive) each time.
